# Values quoted from earlier work as cited in patent publication US8618286B2, “Benzoxazines, benzothiazines, and related compounds having NOS inhibitory activity” (NeurAxon, Inc., priority 2008, dated 2013).
# Legend:
# cardiogenic shock = conditions: human, randomized trial of 30 patients; reduced from 67%; cited from earlier work
# migraine = conditions: human, single i.v. administration; cited from earlier work
# persistent shock = conditions: human, up to 30 days; cited from earlier work
# migraine attack = conditions: human, open pilot study; cited from earlier work
smiles,measurement,setting,value
"COC(=O)[C@@H](N)CCCNC(=N)N[N+](=O)[O-] [L-NAME, N^G-Nitro-L-arginine methyl ester]",patient mortality,cardiogenic shock,27%
"CN=C(N)NCCC[C@H](N)C(=O)O.Cl [L-NMMA, L-N^G methylarginine hydrochloride]",response rate,migraine,67%
same,survival rate,persistent shock,72%
C/C1=C2/[N-][C@H]([C@H](CC(N)=O)[C@@]2(C)CCC(=O)NC[C@@H](C)OP(=O)([O-])O[C@H]2[C@@H](O)[C@@H](n3cnc4cc(C)c(C)cc43)O[C@@H]2CO)[C@]2(C)N=C(/C(C)=C3N=C(/C=C4N=C1[C@@H](CCC(N)=O)C\4(C)C)[C@@H](CCC(N)=O)[C@]\3(C)CC(N)=O)[C@@H](CCC(N)=O)[C@]2(C)CC(N)=O.[Co+3].[OH-] [hydroxycobalamin],patients with a reduction in the frequency of migraine attack of 50%,migraine attack,53%
